Drawing on PubChem BioAssay AID1259407 (Chemical Carcinogenesis Research Information System (CCRIS), 2018), this text covers mutagenic call for seven compounds.

The series has as its system CCRIS mutagenicity, Ames/micronucleus/aberration tests. As to the kind of experiment: CCRIS mutagenicity studies.
[1] abbreviates: Test System: AMES SALMONELLA TYPHIMURIUM, Strain/Indicator: TA98, Metabolic Activation: HAMSTER, LIVER, S-9, AROCLOR 1254 (10%), Method: PREINCUBATION
[2] abbreviates: Test System: AMES SALMONELLA TYPHIMURIUM, Strain/Indicator: TA98, Metabolic Activation: NONE, Method: PREINCUBATION
The mark [3] stands for this setting: Test System: AMES SALMONELLA TYPHIMURIUM, Strain/Indicator: TA98, Metabolic Activation: RAT, LIVER, S-9, AROCLOR 1254 (10%), Method: PREINCUBATION
Setting [4] is: Test System: AMES SALMONELLA TYPHIMURIUM, Strain/Indicator: TA100, Metabolic Activation: HAMSTER, LIVER, S-9, AROCLOR 1254 (10%), Method: PREINCUBATION
[5] abbreviates: Test System: AMES SALMONELLA TYPHIMURIUM, Strain/Indicator: TA100, Metabolic Activation: NONE, Method: PREINCUBATION
Setting [6] is: Test System: AMES SALMONELLA TYPHIMURIUM, Strain/Indicator: TA100, Metabolic Activation: RAT, LIVER, S-9, AROCLOR 1254 (10%), Method: PREINCUBATION
The mark [7] stands for this setting: Test System: AMES SALMONELLA TYPHIMURIUM, Strain/Indicator: TA1535, Metabolic Activation: HAMSTER, LIVER, S-9, AROCLOR 1254 (10%), Method: PREINCUBATION
Where [8] appears, read: Test System: AMES SALMONELLA TYPHIMURIUM, Strain/Indicator: TA1535, Metabolic Activation: NONE, Method: PREINCUBATION
Setting [9] is: Test System: AMES SALMONELLA TYPHIMURIUM, Strain/Indicator: TA1535, Metabolic Activation: RAT, LIVER, S-9, AROCLOR 1254 (10%), Method: PREINCUBATION
The mark [10] stands for this setting: Test System: AMES SALMONELLA TYPHIMURIUM, Strain/Indicator: TA1537, Metabolic Activation: HAMSTER, LIVER, S-9, AROCLOR 1254 (10%), Method: PREINCUBATION
The mark [11] stands for this setting: Test System: AMES SALMONELLA TYPHIMURIUM, Strain/Indicator: TA1537, Metabolic Activation: NONE, Method: PREINCUBATION
Where [12] appears, read: Test System: AMES SALMONELLA TYPHIMURIUM, Strain/Indicator: TA1537, Metabolic Activation: RAT, LIVER, S-9, AROCLOR 1254 (10%), Method: PREINCUBATION
The mark [13] stands for this setting: Test System: AMES SALMONELLA TYPHIMURIUM, Strain/Indicator: TA98, Metabolic Activation: NONE, Method: STANDARD PLATE.
Setting [14] is: Test System: AMES SALMONELLA TYPHIMURIUM, Strain/Indicator: TA98, Metabolic Activation: RAT, LIVER, S-9, AROCLOR 1254, Method: STANDARD PLATE.
Setting [15] is: Test System: AMES SALMONELLA TYPHIMURIUM, Strain/Indicator: TA100, Metabolic Activation: NONE, Method: STANDARD PLATE.
The mark [16] stands for this setting: Test System: AMES SALMONELLA TYPHIMURIUM, Strain/Indicator: TA100, Metabolic Activation: RAT, LIVER, S-9, AROCLOR 1254, Method: STANDARD PLATE.
The mark [17] stands for this setting: Test System: AMES SALMONELLA TYPHIMURIUM, Strain/Indicator: TA1538, Metabolic Activation: NONE, Method: STANDARD PLATE.
[18] abbreviates: Test System: AMES SALMONELLA TYPHIMURIUM, Strain/Indicator: TA1538, Metabolic Activation: RAT, LIVER, S-9, AROCLOR 1254, Method: STANDARD PLATE.

Calls of active or inactive are those of the source. How the calls were made is not given here.

For `CCOCCOC(=O)/C=C/c1ccc(OC)cc1`, the mutagenic call is, setting by setting: under setting [1], “inactive; negative”; under setting [2], “inactive; negative”; under setting [3], “inactive; negative”; under setting [4], “inactive; negative”; under setting [5], “inactive; negative”; under setting [6], “inactive; negative”. In addition, the mutagenic call under setting [7] was “inactive; negative”; the mutagenic call under setting [8] was “inactive; negative”; the mutagenic call under setting [9] was “inactive; negative”; the mutagenic call under setting [10] is “inactive; negative”; the mutagenic call under setting [11] is “inactive; negative”; the mutagenic call under setting [12] is “inactive; negative”.
`NC(=O)N/N=C/C(=O)O`: the mutagenic call is, setting by setting: under setting [13], “inactive; negative”; under setting [14], “inactive; negative”; under setting [15], “inactive; negative”; under setting [16], “inactive; negative”; (Test System: AMES SALMONELLA TYPHIMURIUM, Strain/Indicator: TA1535, Metabolic Activation: NONE, Method: STANDARD PLATE) “inactive; negative”; (Test System: AMES SALMONELLA TYPHIMURIUM, Strain/Indicator: TA1535, Metabolic Activation: RAT, LIVER, S-9, AROCLOR 1254, Method: STANDARD PLATE) “inactive; negative”. The mutagenic call (Test System: AMES SALMONELLA TYPHIMURIUM, Strain/Indicator: TA1537, Metabolic Activation: NONE, Method: STANDARD PLATE) is “inactive; negative”; the mutagenic call (Test System: AMES SALMONELLA TYPHIMURIUM, Strain/Indicator: TA1537, Metabolic Activation: RAT, LIVER, S-9, AROCLOR 1254, Method: STANDARD PLATE) is “inactive; negative”; the mutagenic call under setting [17] was “inactive; negative”; the mutagenic call under setting [18] was “inactive; negative”.
Regarding `CC(C)CN(CC(C)C)CC(C)C`, the mutagenic call reads like this: under setting [1], “inactive; negative”; under setting [2], “inactive; negative”; under setting [3], “inactive; negative”; under setting [4], “inactive; negative”; under setting [5], “inactive; negative”; under setting [6], “inactive; negative”. The mutagenic call is, setting by setting: under setting [7], “inactive; negative”; under setting [8], “inactive; negative”; under setting [9], “inactive; negative”; under setting [10], “inactive; negative”; under setting [11], “inactive; negative”; under setting [12], “inactive; negative”.
With `Cc1nc2ccc3ccc4ccc(O)cc4c3c2o1`, the mutagenic call by setting is: under setting [14], “active; positive”; (Test System: AMES SALMONELLA TYPHIMURIUM, Strain/Indicator: TA98, Metabolic Activation: RAT, LIVER, S-9, AROCLOR, Method: STANDARD PLATE) “active; positive”.
Consider `CC(C)C(=O)N(O)c1ccc(Cl)cc1`, for which the mutagenic call was “inactive; negative” under setting [13], “active; positive” under setting [14], “inactive; negative” under setting [15] and “inactive; negative” under setting [16].
For `O=C(O)c1cc(Cl)ccc1Cl`, the mutagenic call reads like this: under setting [2], “inactive; negative”; (Test System: AMES SALMONELLA TYPHIMURIUM, Strain/Indicator: TA98, Metabolic Activation: RAT LIVER S-9, PCB, Method: PREINCUBATION) “inactive; negative”; under setting [5], “inactive; negative”; (Test System: AMES SALMONELLA TYPHIMURIUM, Strain/Indicator: TA100, Metabolic Activation: RAT LIVER S-9, PCB, Method: PREINCUBATION) “inactive; negative”; (Test System: AMES SALMONELLA TYPHIMURIUM, Strain/Indicator: TA104, Metabolic Activation: NONE, Method: PREINCUBATION) “inactive; negative”; (Test System: AMES SALMONELLA TYPHIMURIUM, Strain/Indicator: TA104, Metabolic Activation: RAT LIVER S-9, PCB, Method: PREINCUBATION) “inactive; negative”. Further, the mutagenic call is “inactive; negative” (Test System: E.COLI, Strain/Indicator: WP2 UVRA, Metabolic Activation: NONE, Method: PREINCUBATION) and “inactive; negative” (Test System: E.COLI, Strain/Indicator: WP2 UVRA, Metabolic Activation: RAT LIVER S-9, PCB, Method: PREINCUBATION).
For `CCN(CC)c1ccc(-c2ccc(-c3ccc(-c4ccc(N(CC)CC)cc4)cc3)cc2)cc1`, the mutagenic call reads like this: under setting [17], “inactive; negative”; under setting [18], “inactive; negative”.
